# Source: ChEMBL document CHEMBL4033665, “Synthesis and applications of benzohydroxamic acid-based histone deacetylase inhibitors” (Eur J Med Chem, 2017)
# Legend:
# [1] = organism: Homo sapiens; assay: Selectivity index, ratio of IC50 for human HDAC7 to IC50 for human HDAC6
# [2] = organism: Homo sapiens; assay: Selectivity index, ratio of IC50 for human HDAC9 to IC50 for human HDAC6
# [3] = biological target: Histone deacetylase 2 (Homo sapiens, UniProt Q92769); assay: Inhibition of human HDAC2 after 15 mins by trypsin-coupled fluorescence assay
# [4] = organism: Homo sapiens; assay: Selectivity index, ratio of IC50 for human HDAC10 to IC50 for human HDAC6
# [5] = biological target: T1, Polyamine deacetylase HDAC10 (Homo sapiens, UniProt Q969S8); assay: Inhibition of human HDAC10 after 15 mins by trypsin-coupled fluorescence assay
# T1 sequence (Q969S8 whole entry): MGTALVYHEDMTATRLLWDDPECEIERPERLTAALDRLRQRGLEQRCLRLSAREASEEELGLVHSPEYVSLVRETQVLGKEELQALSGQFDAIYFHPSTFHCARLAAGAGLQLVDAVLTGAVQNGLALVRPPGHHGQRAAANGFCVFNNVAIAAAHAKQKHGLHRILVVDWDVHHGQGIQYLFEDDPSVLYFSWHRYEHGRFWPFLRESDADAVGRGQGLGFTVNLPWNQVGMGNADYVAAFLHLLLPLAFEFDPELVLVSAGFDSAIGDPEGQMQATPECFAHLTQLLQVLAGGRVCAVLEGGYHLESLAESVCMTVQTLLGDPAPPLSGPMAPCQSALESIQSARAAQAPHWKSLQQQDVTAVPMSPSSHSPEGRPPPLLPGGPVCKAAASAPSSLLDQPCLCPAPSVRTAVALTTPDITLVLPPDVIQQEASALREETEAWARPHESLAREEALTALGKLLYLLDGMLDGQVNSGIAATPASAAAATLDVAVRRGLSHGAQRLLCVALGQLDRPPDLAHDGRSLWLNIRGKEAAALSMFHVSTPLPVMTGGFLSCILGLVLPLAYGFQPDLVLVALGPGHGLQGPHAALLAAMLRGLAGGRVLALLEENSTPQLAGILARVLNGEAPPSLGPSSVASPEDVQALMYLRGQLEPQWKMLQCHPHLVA
# [6] = organism: Homo sapiens; assay: Selectivity index, ratio of IC50 for human HDAC11 to IC50 for human HDAC6
# [7] = biological target: T2, Histone deacetylase 8 (Homo sapiens, UniProt Q9BY41); assay: Inhibition of human HDAC8 after 15 mins by trypsin-coupled fluorescence assay
# T2 sequence (Q9BY41 whole entry): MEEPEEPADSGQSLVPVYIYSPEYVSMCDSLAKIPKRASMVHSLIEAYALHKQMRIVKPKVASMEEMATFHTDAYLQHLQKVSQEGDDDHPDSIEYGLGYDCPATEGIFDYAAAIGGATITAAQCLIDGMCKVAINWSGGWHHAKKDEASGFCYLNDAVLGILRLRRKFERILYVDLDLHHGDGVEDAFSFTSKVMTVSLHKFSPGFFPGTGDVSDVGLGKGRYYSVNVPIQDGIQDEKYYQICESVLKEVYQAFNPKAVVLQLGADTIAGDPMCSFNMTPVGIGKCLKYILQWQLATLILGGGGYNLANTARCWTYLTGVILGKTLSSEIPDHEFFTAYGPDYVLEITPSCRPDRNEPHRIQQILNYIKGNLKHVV
# [8] = organism: Homo sapiens; assay: Selectivity index, ratio of IC50 for human HDAC1 to IC50 for human HDAC6
# [9] = organism: Homo sapiens; assay: Selectivity index, ratio of IC50 for human HDAC3 to IC50 for human HDAC6
# [10] = biological target: T3, Protein deacetylase HDAC6 (Homo sapiens, UniProt Q9UBN7); assay: Inhibition of human HDAC6 after 15 mins by trypsin-coupled fluorescence assay
# T3 sequence (Q9UBN7 whole entry): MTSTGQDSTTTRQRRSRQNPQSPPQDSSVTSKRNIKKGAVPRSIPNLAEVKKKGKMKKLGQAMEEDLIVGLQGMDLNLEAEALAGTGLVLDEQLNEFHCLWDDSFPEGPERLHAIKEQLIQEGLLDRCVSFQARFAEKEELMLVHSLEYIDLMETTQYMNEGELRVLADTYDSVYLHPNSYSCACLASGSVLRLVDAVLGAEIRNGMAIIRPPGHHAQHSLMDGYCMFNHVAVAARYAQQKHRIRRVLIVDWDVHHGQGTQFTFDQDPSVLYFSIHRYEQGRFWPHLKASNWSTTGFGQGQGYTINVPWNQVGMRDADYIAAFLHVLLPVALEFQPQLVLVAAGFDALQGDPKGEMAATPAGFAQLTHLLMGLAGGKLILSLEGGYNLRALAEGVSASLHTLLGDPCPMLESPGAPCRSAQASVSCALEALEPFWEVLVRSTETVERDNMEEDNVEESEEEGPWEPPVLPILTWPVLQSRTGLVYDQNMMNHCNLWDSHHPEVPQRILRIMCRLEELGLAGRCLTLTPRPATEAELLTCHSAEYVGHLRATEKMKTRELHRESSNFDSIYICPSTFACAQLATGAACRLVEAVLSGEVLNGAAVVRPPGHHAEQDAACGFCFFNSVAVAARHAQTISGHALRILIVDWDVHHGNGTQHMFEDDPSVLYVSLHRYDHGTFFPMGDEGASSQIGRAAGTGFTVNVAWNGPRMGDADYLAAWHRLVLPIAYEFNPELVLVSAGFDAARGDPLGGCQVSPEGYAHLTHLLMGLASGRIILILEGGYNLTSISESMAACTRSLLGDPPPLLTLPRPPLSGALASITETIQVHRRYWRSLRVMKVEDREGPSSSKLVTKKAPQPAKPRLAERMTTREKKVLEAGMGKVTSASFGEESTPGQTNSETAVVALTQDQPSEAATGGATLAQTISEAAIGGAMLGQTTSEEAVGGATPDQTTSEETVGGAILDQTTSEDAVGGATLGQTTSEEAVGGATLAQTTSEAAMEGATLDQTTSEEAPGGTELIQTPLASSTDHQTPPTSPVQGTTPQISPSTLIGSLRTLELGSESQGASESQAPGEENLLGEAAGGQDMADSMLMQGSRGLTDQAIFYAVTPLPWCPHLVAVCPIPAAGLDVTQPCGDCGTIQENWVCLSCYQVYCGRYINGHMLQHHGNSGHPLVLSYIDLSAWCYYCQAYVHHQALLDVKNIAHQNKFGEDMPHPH
# [11] = biological target: Histone deacetylase 3 (Homo sapiens, UniProt O15379); assay: Inhibition of human HDAC3 after 15 mins by trypsin-coupled fluorescence assay
# [12] = organism: Homo sapiens; assay: Selectivity index, ratio of IC50 for human HDAC2 to IC50 for human HDAC6
# [13] = organism: Homo sapiens; assay: Selectivity index, ratio of IC50 for human HDAC5 to IC50 for human HDAC6
# Histone deacetylase 3, sequence (O15379 whole entry): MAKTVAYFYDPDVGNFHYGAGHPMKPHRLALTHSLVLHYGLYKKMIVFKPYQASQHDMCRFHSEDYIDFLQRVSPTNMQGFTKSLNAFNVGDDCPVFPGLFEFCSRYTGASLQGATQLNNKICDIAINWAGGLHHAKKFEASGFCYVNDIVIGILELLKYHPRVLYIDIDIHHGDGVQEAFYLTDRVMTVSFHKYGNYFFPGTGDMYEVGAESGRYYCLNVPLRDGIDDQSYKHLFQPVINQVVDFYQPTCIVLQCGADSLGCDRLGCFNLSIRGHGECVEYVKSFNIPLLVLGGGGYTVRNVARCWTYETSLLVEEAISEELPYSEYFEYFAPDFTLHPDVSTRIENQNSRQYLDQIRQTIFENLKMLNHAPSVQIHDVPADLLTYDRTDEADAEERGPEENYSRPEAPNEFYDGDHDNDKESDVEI
# Histone deacetylase 2, sequence (Q92769 whole entry): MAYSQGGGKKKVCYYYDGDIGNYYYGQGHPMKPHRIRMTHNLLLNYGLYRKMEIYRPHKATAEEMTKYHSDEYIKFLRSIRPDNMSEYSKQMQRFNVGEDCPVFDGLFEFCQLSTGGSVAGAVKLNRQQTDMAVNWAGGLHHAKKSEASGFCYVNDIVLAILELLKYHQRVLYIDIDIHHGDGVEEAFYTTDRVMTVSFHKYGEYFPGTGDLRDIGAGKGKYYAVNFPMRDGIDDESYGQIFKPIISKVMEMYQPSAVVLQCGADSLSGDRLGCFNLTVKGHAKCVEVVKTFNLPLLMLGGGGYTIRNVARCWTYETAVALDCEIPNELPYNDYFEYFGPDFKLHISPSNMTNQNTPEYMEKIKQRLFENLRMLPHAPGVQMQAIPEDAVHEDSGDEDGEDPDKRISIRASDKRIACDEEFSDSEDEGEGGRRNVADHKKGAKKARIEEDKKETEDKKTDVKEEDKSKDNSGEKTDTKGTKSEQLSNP
compound,measurement,setting,value
O=C(NO)c1ccc(CN(CCO)C(=O)Cc2ccccc2)cc1,Ratio IC50,[1],15 to 400
same,Ratio IC50,[2],15 to 400
same,IC50,[3],2.2 µM
same,Ratio IC50,[4],15 to 400
same,IC50,[5],0.7 µM
same,Ratio IC50,[6],15 to 400
same,IC50,[7],0.4 µM
same,Ratio IC50,[8],15 to 400
same,Ratio IC50,[9],15 to 400
same,IC50,[10],0.025 µM
same,IC50,[11],2.1 µM
same,Ratio IC50,[12],15 to 400
same,Ratio IC50,[13],15 to 400
